These results are taken from patent publication US12545685B2 (Daiichi Sankyo Company, Limited, priority 2011, dated 2026).

This experiment deals with T1, Mdm2/p53 binding (GST-Mdm2 / His-p53) (Homo sapiens, UniProt Q00987, L33E).
T1 construct: Mdm2 partial protein having Mdm2 amino acids at positions 25 to 108
T1 sequence (Q00987 25-108 L33E): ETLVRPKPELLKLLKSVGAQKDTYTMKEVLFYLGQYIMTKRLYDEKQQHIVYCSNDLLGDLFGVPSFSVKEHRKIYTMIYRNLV
The experiment in a line: Mdm2/p53 binding assay (HTRF, His-p53 and GST-Mdm2). The following applies: His-p53 (aa 1-132) and GST-Mdm2 (aa 25-108, L33E) 6.25 nM each; 25°C, 1 hour; values given as ranges. On the procedure: A protein dilution containing 6.25 nM each of His-p53 (fusion protein of a p53 partial protein having p53 amino acids at positions 1 to 132, with a histidine protein) and GST-Mdm2 (fusion protein of an Mdm2 partial protein having Mdm2 amino acids at positions 25 to 108 with leucine residue 33 substituted by glutamic acid, with glutathione transferase) proteins was prepared using a protein buffer solution (20 mM HEPES pH 7.4, 150 mM NaCl, 0.1% BSA). This protein dilution was added in an amount of 8 μl/well to a 384-well plate (384-well low volume NBC, Corning Inc., catalog No: 3676).
Next, a test compound was diluted with DMSO to produce a protein buffer solution containing 10% dilution, and this buffer solution was added in an amount of 4 μl/well to the plate.
Subsequently, a solution containing an XL665-labeled anti-His antibody (HTRF monoclonal anti-6HIS antibody labeled with XL665 (catalog No: 61HISXLB), Schering/Cisbio Bioassays) and a europium (Eu)-labeled anti-GST antibody (HTRF monoclonal anti-GST antibody labeled with europium cryptate, Schering/Cisbio Bioassays, catalog No: 61GSTKLB) at concentrations of 2.5 μg/ml and 0.325 μg/ml, respectively, was prepared using an antibody diluting buffer solution (20 mM HEPES pH 7.4, 150 mM NaCl, 0.1% BSA, 0.5 M KF). These dilutions were added in an amount of 8 μl/well (total reaction solution volume: 20 μl/well). Then the plate was incubated at 25° ° C. for 1 hour.
Time-resolved fluorescence at 620 and 665 nm was measured at an excitation wavelength of 320 nm using a plate reader (ARVOsx, PerkinElmer Co., Ltd. or PHERAstar, BMG LABTECH). Ratio (R) was calculated using the measured values (RFU 620 nm and RFU 665 nm) according to the following formula: […]
BI: measured value at 665 nm of reaction solution (only each buffer solution) nonsupplemented with each protein, the compound, and the antibodies
A and D: each measured value at 665 nm and 620 nm of reaction solution supplemented with only Eu-labeled anti-GST antibody solution
The R value calculated from the well supplemented with His-p53, GST-Mdm2, the test compound, and each antibody was defined as R (sample). The R value calculated from the well supplemented with His-p53, GST-Mdm2, and each antibody but without the test compound was defined as R (control). The R value calculated from the well supplemented with GST-Mdm2 the test compound, and each antibody but without His-p53 was defined as R (background). T/C was calculated from the formula shown below. An IC50 value for Mdm2/p53 binding was calculated by sigmoid fitting.
In general terms: In TR-FRET formats the signal depends on donor and acceptor labels being close together.
For orientation: IC50 means the concentration that gives 50% inhibition. Higher therefore signals weaker potency. `CC1(C)CCC2(CC1)N[C@@H](C(=O)N[C@H]1CC[C@H](N3CC(O)C3)CC1)[C@H](c1cccc(Cl)c1F)[C@]21C(=O)Nc2cc(Cl)ccc21` (relative stereo) [Example 12, (3′R, 4′S,5′R)-6″-chloro-4′-(3-chloro-2-fluorophenyl)-N-[trans-4-(3-hydroxyazetidin-1-yl)cyclohexyl]-4,4-dimethyl-2″-oxo-1″,2″-dihydrodispiro[cyclohexane-1,2′-pyrrolidine-3′,3″-indole]-5′-carboxamide] displayed an IC50 of 1 to 50 nM.
Compound `CNC(=O)c1cc(Cl)cc([C@H]2[C@H](C(=O)N[C@H]3CC[C@H](O)CC3)NC3(CCC(C)(C)CC3)[C@@]23C(=O)Nc2cc(Cl)ccc23)c1` (relative stereo) [Example 21, (3′R, 4′R, 5′R)-6″-chloro-4′-[3-chloro-5-(methylcarbamoyl)phenyl]-N-(trans-4-hydroxycyclohexyl)-4,4-dimethyl-2″-oxo-1″,2″-dihydrodispiro[cyclohexane-1,2′-pyrrolidine-3′,3″-indole]-5′-carboxamide] displayed an IC50 of 1 to 50 nM.
Under `CC1(C)CCC2(CC1)N[C@@H](C(=O)N[C@H]1CC[C@H](O)CC1)[C@H](c1cc(N)cc(Cl)c1)[C@]21C(=O)Nc2cc(Cl)ccc21` (relative stereo) [Example 36, (3′R, 4′R, 5′R)-4′-(3-amino-5-chlorophenyl)-6″-chloro-N-(trans-4-hydroxycyclohexyl)-4,4-dimethyl-2″-oxo-1″,2″-dihydrodispiro[cyclohexane-1,2′-pyrrolidine-3′,3″-indole]-5′-carboxamide] stands 1 to 50 nM; under `CC1(C)CCC2(CC1)N[C@@H](C(=O)N[C@H]1CC[C@H](c3noc(=O)[nH]3)CC1)[C@H](c1cccc(Cl)c1F)[C@]21C(=O)Nc2nc(Cl)ccc21` (relative stereo) [Example 49, (3′R, 4′S,5′R)-6″-chloro-4′-(3-chloro-2-fluorophenyl)-4,4-dimethyl-2″-oxo-N-[trans-4-(5-oxo-4,5-dihydro-1,2,4-oxadiazol-3-yl)cyclohexyl]-1″,2″-dihydrodispiro[cyclohexane-1,2′-pyrrolidine-3′,3″-pyrrolo[2,3-b]pyridine]-5′-carboxamide], 1 to 50 nM.
`O=C(N[C@H]1CC[C@H](O)CC1)[C@@H]1NC2(CC(CF)(CF)C2)[C@@]2(C(=O)Nc3cc(Cl)ccc32)[C@H]1c1cccc(Cl)c1F` (relative stereo) [Example 121, (3′R, 4′S,5′R)-6″-chloro-4′-(3-chloro-2-fluorophenyl)-3,3-bis(fluoromethyl)-N-(trans-4-hydroxycyclohexyl)-2″-oxo-1″,2″-dihydrodispiro[cyclobutane-1,2′-pyrrolidine-3′,3″-indole]-5′-carboxamide] had a 50% inhibitory concentration (IC50) of 50 to 100 nM.
On to `CN(C)C(=O)[C@H]1CC[C@H](NC(=O)[C@@H]2NC3(CC(CF)(CF)C3)[C@@]3(C(=O)Nc4cc(Cl)ccc43)[C@H]2c2cc(F)cc(Cl)c2)CC1` (relative stereo) [Example 168, (3′R, 4′R, 5′R)-6″-chloro-4′-(3-chloro-5-fluorophenyl)-N-[trans-4-(dimethylcarbamoyl)cyclohexyl]-3,3-bis(fluoromethyl)-2″-oxo-1″,2″-dihydrodispiro[cyclobutane-1,2′-pyrrolidine-3′,3″-indole]-5′-carboxamide], for which the IC50 was 100 to 500 nM.
For `CC1(C)CCC2(CC1)N[C@@H](C(=O)N[C@H]1CC[C@H](c3nnco3)CC1)[C@H](c1ccnc(Cl)c1F)[C@]21C(=O)Nc2cc(Cl)ncc21` (relative stereo) [Example 190], the IC50 was 50 to 100 nM.
Regarding `CC(O)[C@@H]1CC[C@@H](NC(=O)[C@@H]2NC3(CCC(C)(C)CC3)[C@@]3(C(=O)Nc4nc(Cl)ccc43)[C@H]2c2ccnc(Cl)c2F)CO1` (single isomer, unassigned) [Example 75], the IC50 lay in the range of 1 to 50 nM.
Regarding `CC1(C)CCC2(CC1)N[C@@H](C(=O)N[C@H]1CO[C@H](CO)C(C)(O)C1)[C@H](c1ccnc(Cl)c1F)[C@]21C(=O)Nc2cc(Cl)ccc21` (single isomer, unassigned) [Example 85], the IC50 was in the range of 1 to 50 nM.
In the case of `CC1(C)CCC2(CC1)N[C@@H](C(=O)N[C@@H]1CC[C@@H](C(O)CO)OC1)[C@H](c1ccnc(Cl)c1F)[C@]21C(=O)Nc2cc(Cl)ccc21` (single isomer, unassigned) [Example 89], the IC50 was in the range of 1 to 50 nM.
For `CC(O)[C@@H]1CC[C@@H](NC(=O)[C@@H]2NC3(CC(CF)(CF)C3)[C@@]3(C(=O)Nc4cc(Cl)ccc43)[C@H]2c2cccc(Cl)c2F)CO1` (single isomer, unassigned) [Example 146], the IC50 was in the range of 1 to 50 nM.
`CC(O)[C@@H]1CC[C@@H](NC(=O)[C@@H]2NC3(CC(CF)(CF)C3)[C@@]3(C(=O)Nc4cc(Cl)ccc43)[C@H]2c2cccc(Cl)c2F)CO1` (single isomer, unassigned) [Example 147]: the IC50 was 50 to 100 nM.
On to `CC1(C)CCC2(CC1)N[C@@H](C(=O)N[C@@H]1CC[C@@H](C(C)(C)O)OC1)[C@H](c1ccnc(Cl)c1)[C@]21C(=O)Nc2cc(Cl)ccc21` [Example 10, (3′R, 4′R, 5′R)-6″-chloro-4′-(2-chloropyridin-4-yl)-N-[(3R,6S)-6-(1-hydroxy-1-methylethyl)tetrahydro-2H-pyran-3-yl]-4,4-dimethyl-2″-oxo-1″,2″-dihydrodispiro[cyclohexane-1,2′-pyrrolidine-3′,3″-indole]-5′-carboxamide], for which the IC50 fell in the range of 50 to 100 nM.
Under `CC1(C)CCC2(CC1)N[C@@H](C(=O)N[C@H]1CC[C@H](O)CC1)[C@H](c1cccc(Cl)c1F)[C@]21C(=O)Nc2cc(C#N)ccc21` [Example 15, (3′R, 4′S,5′R)-4′-(3-chloro-2-fluorophenyl)-6″-cyano-N-(trans-4-hydroxycyclohexyl)-4,4-dimethyl-2″-oxo-1″,2″-dihydrodispiro[cyclohexane-1,2′-pyrrolidine-3′,3″-indole]-5%-carboxamide] stands 50 to 100 nM.
`CC1(C)CCC2(CC1)N[C@@H](C(=O)N[C@@H]1C=C[C@@H](CO)OC1)[C@H](c1cccc(Cl)c1F)[C@]21C(=O)Nc2cc(Cl)ccc21` [Example 19, (3′R,4′S,5′R)-6″-chloro-4′-(3-chloro-2-fluorophenyl)-N-[(3R,6S)-6-(hydroxymethyl)-3,6-dihydro-2H-pyran-3-yl]-4,4-dimethyl-2″-oxo-1″,2″-dihydrodispiro[cyclohexane-1,2′-pyrrolidine-3′,3″-indole]-5′-carboxamide] gave an IC50 of 50 to 100 nM.
In turn, `COC(=O)c1cc(Cl)cc([C@H]2[C@H](C(=O)N[C@@H]3CC[C@@H](CO)OC3)NC3(CCC(C)(C)CC3)[C@@]23C(=O)Nc2cc(Cl)ccc23)c1` [Example 22, 1,5-Anhydro-2-[({(3′R, 4′R, 5′R)-6″-chloro-4′-[3-chloro-5-(methoxycarbonyl)phenyl]-4,4-dimethyl-2″-oxo-1″,2″-dihydrodispiro[cyclohexane-1,2′-pyrrolidine-3′,3″-indole]-5′-yl}carbonyl)amino]-2,3,4-trideoxy-D-erythro-hexitol] gave an IC50 of 50 to 100 nM.
Next, `CNC(=O)c1cc(Cl)cc([C@H]2[C@H](C(=O)N[C@@H]3CC[C@@H](CO)OC3)NC3(CCC(C)(C)CC3)[C@@]23C(=O)Nc2cc(Cl)ccc23)c1` [Example 27, 2, 5˜Anhydro-2-[({(3′R, 4′R, 5′R)-6″-chloro-4′-[3-chloro-5-(methylcarbamoyl)phenyl]-4,4-dimethyl-2″-oxo-1″,2″-dihydrodispiro[cyclohexane-1,2′-pyrrolidine-3′,3″-indole]-5′-yl}carbonyl)amino]-2,3,4-trideoxy-D-erythro-hexitol]: 1 to 50 nM; `CC1(C)CCC2(CC1)N[C@@H](C(=O)N[C@H]1CC[C@@](O)(CO)CC1)[C@H](c1cccc(Cl)c1F)[C@]21C(=O)Nc2cc(Cl)ccc21` [Example 33, (3′R, 4′S,5′R)-6″-chloro-4′-(3-chloro-2-fluorophenyl)-N-[trans-4-hydroxy-4-(hydroxymethyl)cyclohexyl]-4,4-dimethyl-2″-oxo-1″,2″-dihydrodispiro[cyclohexane-1,2′-pyrrolidine-3′,3″-indole]-5′-carboxamide]: 1 to 50 nM.
